# Test results: patent US11667649B2, “Heteroaromatic macrocyclic ether chemotherapeutic agents” (Nuvalent, Inc., priority 2020, dated 2023)
# Test system: TPM3-NTRK1-wt IC50 / primary target (e.g. CD74-ROS1-wt) IC50, Ba/F3 cells
# Test: Cell assay TRKA selectivity (TRKA potency divided by primary target potency)
# Type: cell-based
# Conditions: for TPM3-NTRK1-wt/CD74-ROS1-G2032R: TRKA selectivity ratio: TPM3-NTRK1-wt IC50 / CD74-ROS1-G2032R IC50, Ba/F3 cells; for TPM3-NTRK1-wt/CD74-ROS1-wt: TRKA selectivity ratio: TPM3-NTRK1-wt IC50 / CD74-ROS1-wt IC50, Ba/F3 cells; for TPM3-NTRK1-wt/EML4-ALK-L1196M-G1202R: TRKA selectivity ratio: TPM3-NTRK1-wt IC50 / EML4-ALK-L1196M-G1202R IC50, Ba/F3 cells; for TPM3-NTRK1-wt/EML4-ALK-wt: TRKA selectivity ratio: TPM3-NTRK1-wt IC50 / EML4-ALK-wt IC50, Ba/F3 cells
# In short: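 IL-3-independent Ba/F3 lines stably expressing TPM3-TRKA or the primary fusion (e.g. CD74-ROS1 wt) were exposed to 3-fold compound dilutions for 72 h. Viability was read by CellTiter-Glo luminescence, with IC50 from four-parameter logistic fit. Selectivity is TPM3-NTRK1 IC50 divided by primary-target IC50, binned A (>30-fold) to D (<1).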
Compound,TPM3-NTRK1-wt/CD74-ROS1-G2032R,TPM3-NTRK1-wt/CD74-ROS1-wt,TPM3-NTRK1-wt/EML4-ALK-L1196M-G1202R,TPM3-NTRK1-wt/EML4-ALK-wt
"CCn1cc2c(n1)-c1ccc(F)cc1[C@@H](C)Oc1cc(cnc1N)-c1c(cnn1CC1CC1)C2 [Example 140, (19R)-3-(cyclopropylmethyl)-10-ethyl-16-fluoro-19-methyl-20-oxa-3,4,10,11,23-pentaazapentacyclo[19.3.1.0^2,^6.0^8,^12.0^13,^18]pentacosa-1(24),2(6),4,8,11,13,15,17,21(25),22-decaen-22-amine]","A (bin A for very high selectivity, ratio>30-fold)","A (bin A for very high selectivity, ratio>30-fold)","A (bin A for very high selectivity, ratio>30-fold)","A (bin A for very high selectivity, ratio>30-fold)"
"C[C@H]1Oc2cc(cnc2N)-c2c(C#N)nn(C)c2Cc2cc(C(F)(F)F)nn2-c2ccc(F)cc21 [Example 104, (19R)-22-amino-16-fluoro-5,19-dimethyl-10-(trifluoromethyl)-20-oxa-4,5,11,12,23-pentaazapentacyclo[19.3.1.0^2,^6.0^8,^12.0^13,^18]pentacosa-1(24),2(6),3,8,10,13,15,17,21(25),22-decaene-3-carbonitrile]","A (bin A for very high selectivity, ratio>30-fold)","A (bin A for very high selectivity, ratio>30-fold)","C (bin C for moderate selectivity, ratio≥1)","A (bin A for very high selectivity, ratio>30-fold)"
"CCn1nnc2c1-c1cnc(N)c(c1)O[C@H](C)c1cc(F)ccc1-c1nn(C)cc1C2 [Example 20, (19R)-3-ethyl-16-fluoro-10,19-dimethyl-20-oxa-3,4,5,10,11,23-hexaazapentacyclo[19.3.1.0^2,^6.0^8,^12.0^13,^18]pentacosa-1(24),2(6),4,8,11,13,15,17,21(25),22-decaen-22-amine]","A (bin A for very high selectivity, ratio>30-fold)","A (bin A for very high selectivity, ratio>30-fold)","B (bin B for high selectivity, ratio>10-fold)","A (bin A for very high selectivity, ratio>30-fold)"
"CCc1noc2c1-c1cnc(N)c(n1)O[C@H](C)c1cc(F)ccc1-c1nn(C)cc1C2 [Example 162, (19R)-3-ethyl-16-fluoro-10,19-dimethyl-5,20-dioxa-4,10,11,23,25-pentaazapentacyclo[19.3.1.0^2,^6.0^8,^12.0^13,^18]pentacosa-1(24),2(6),3,8,11,13,15,17,21(25),22-decaen-22-amine]","B (bin B for high selectivity, ratio>10-fold)","A (bin A for very high selectivity, ratio>30-fold)","C (bin C for moderate selectivity, ratio≥1)","A (bin A for very high selectivity, ratio>30-fold)"
"Cn1cc2c(n1)-c1ccc(F)cc1COc1cc(cnc1N)-c1c(cnn1C1CCC1)C2 [Example 7, 3-cyclobutyl-16-fluoro-10-methyl-20-oxa-3,4,10,11,23-pentaazapentacyclo[19.3.1.0^2,^6.0^8,^12.0^13,^18]pentacosa-1(24),2(6),4,8,11,13,15,17,21(25),22-decaen-22-amine]","A (bin A for very high selectivity, ratio>30-fold)",,"A (bin A for very high selectivity, ratio>30-fold)",
"CCn1nnc2c1-c1cnc(N)c(c1)O[C@H](C)c1cc(F)ccc1-c1sncc1C2 [Example 93, (19R)-3-ethyl-16-fluoro-19-methyl-20-oxa-11-thia-3,4,5,10,23-pentaazapentacyclo[19.3.1.0^2,^6.0^8,^12.0^13,^18]pentacosa-1(24),2(6),4,8(12),9,13,15,17,21(25),22-decaen-22-amine]","A (bin A for very high selectivity, ratio>30-fold)","A (bin A for very high selectivity, ratio>30-fold)","C (bin C for moderate selectivity, ratio≥1)","B (bin B for high selectivity, ratio>10-fold)"
"CCn1nnc2c1-c1cnc(N)c(c1)O[C@H](C)c1cc(F)ccc1-n1nc(C(F)(F)F)cc1C2 [Example 107, (19R)-3-ethyl-16-fluoro-19-methyl-10-(trifluoromethyl)-20-oxa-3,4,5,11,12,23-hexaazapentacyclo[19.3.1.0^2,^6.0^8,^12.0^13,^18]pentacosa-1(24),2(6),4,8,10,13,15,17,21(25),22-decaen-22-amine]","A (bin A for very high selectivity, ratio>30-fold)","A (bin A for very high selectivity, ratio>30-fold)","C (bin C for moderate selectivity, ratio≥1)","C (bin C for moderate selectivity, ratio≥1)"
"CCc1nn(C)c2c1-c1cnc(N)c(c1)O[C@H](C)c1cc(F)ccc1-c1nc(C)sc1C2 [Example 173, (19R)-3-ethyl-16-fluoro-5,10,19-trimethyl-20-oxa-9-thia-4,5,11,23-tetraazapentacyclo[19.3.1.0^2,^6.0^8,^12.0^13,^18]pentacosa-1(24),2(6),3,8(12),10,13,15,17,21(25),22-decaen-22-amine]","A (bin A for very high selectivity, ratio>30-fold)","A (bin A for very high selectivity, ratio>30-fold)","B (bin B for high selectivity, ratio>10-fold)","A (bin A for very high selectivity, ratio>30-fold)"
"C[C@H]1Oc2cc(cnc2N)-c2c(cnn2CC2CC2)Cc2cc(C(F)F)nn2-c2ccc(F)cc21 [Example 130, (19R)-3-(cyclopropylmethyl)-10-(difluoromethyl)-16-fluoro-19-methyl-20-oxa-3,4,11,12,23-pentaazapentacyclo[19.3.1.0^2,^6.0^8,^12.0^13,^18]pentacosa-1(24),2(6),4,8,10,13,15,17,21(25),22-decaen-22-amine]","A (bin A for very high selectivity, ratio>30-fold)","A (bin A for very high selectivity, ratio>30-fold)","B (bin B for high selectivity, ratio>10-fold)","A (bin A for very high selectivity, ratio>30-fold)"
"CCn1ncc2c1-c1cnc(N)c(c1)O[C@H](C)c1cc(F)ccc1-c1ncccc1C2 [Example 3, (20R)-3-ethyl-17-fluoro-20-methyl-21-oxa-3,4,12,24-tetraazapentacyclo[20.3.1.0^2,^6.0^8,^13.0^14,^19]hexacosa-1(25),2(6),4,8(13),9,11,14,16,18,22(26),23-undecaen-23-amine]","A (bin A for very high selectivity, ratio>30-fold)",,"B (bin B for high selectivity, ratio>10-fold)","A (bin A for very high selectivity, ratio>30-fold)"
"Cc1nn(CC2CC2)c2c1Cc1cccnc1-c1ccc(F)cc1[C@@H](C)Oc1cc-2cnc1N [Example 135, (20R)-3-(cyclopropylmethyl)-17-fluoro-5,20-dimethyl-21-oxa-3,4,12,24-tetraazapentacyclo[20.3.1.0^2,^6.0^8,^13.0^14,^19]hexacosa-1(25),2(6),4,8(13),9,11,14,16,18,22(26),23-undecaen-23-amine]","A (bin A for very high selectivity, ratio>30-fold)","A (bin A for very high selectivity, ratio>30-fold)","A (bin A for very high selectivity, ratio>30-fold)","A (bin A for very high selectivity, ratio>30-fold)"
"CCc1onc2c1-c1cnc(N)c(c1)O[C@H](C)c1cc(F)ccc1-c1nn(C)cc1C2 [Example 152, (19R)-3-ethyl-16-fluoro-10,19-dimethyl-4,20-dioxa-5,10,11,23-tetraazapentacyclo[19.3.1.0^2,^6.0^8,^12.0^13,^18]pentacosa-1(24),2,5,8,11,13,15,17,21(25),22-decaen-22-amine]","A (bin A for very high selectivity, ratio>30-fold)","A (bin A for very high selectivity, ratio>30-fold)","C (bin C for moderate selectivity, ratio≥1)","A (bin A for very high selectivity, ratio>30-fold)"
"C[C@H]1Oc2cc(cnc2N)-c2c(cnn2CC2CC2)Cc2cc(C(F)(F)F)nn2-c2ccc(F)cc21 [Example 91, (19R)-3-(cyclopropylmethyl)-16-fluoro-19-methyl-10-(trifluoromethyl)-20-oxa-3,4,11,12,23-pentaazapentacyclo[19.3.1.0^2,^6.0^8,^12.0^13,^18]pentacosa-1(24),2(6),4,8,10,13,15,17,21(25),22-decaen-22-amine]","A (bin A for very high selectivity, ratio>30-fold)","A (bin A for very high selectivity, ratio>30-fold)","A (bin A for very high selectivity, ratio>30-fold)","A (bin A for very high selectivity, ratio>30-fold)"
"Cc1nc2c(s1)Cc1cnn(C(F)F)c1-c1cnc(N)c(c1)O[C@H](C)c1cc(F)ccc1-2 [Example 72, (19R)-3-(difluoromethyl)-16-fluoro-10,19-dimethyl-20-oxa-9-thia-3,4,11,23-tetraazapentacyclo[19.3.1.0^2,^6.0^8,^12.0^13,^18]pentacosa-1(24),2(6),4,8(12),10,13,15,17,21(25),22-decaen-22-amine]","A (bin A for very high selectivity, ratio>30-fold)","A (bin A for very high selectivity, ratio>30-fold)","C (bin C for moderate selectivity, ratio≥1)","A (bin A for very high selectivity, ratio>30-fold)"
